Results taken from patent US20220289794A1, “SYNTHETIC ANTIMICROBIAL PEPTIDES” (priority 2019, published 2022).
≈ marks a conversion by molar mass, not a printed value. Like-named read-outs stand apart in the source and are kept apart here. Non-standard residues stand in square brackets, D forms with d. Residues, ends and D or L forms follow the SMILES beside them. Dip = N[C@H](C(=O)O)C(c1ccccc1)c1ccccc1; 2Nal = N[C@@H](Cc1ccc2ccccc2c1)C(=O)O; d2Nal = N[C@H](Cc1ccc2ccccc2c1)C(=O)O

Columns and labels:
[1] = tested on: B. subtilis (ATCC-6633); assay: Broad-spectrum activity against Gram-Positive bacteria (MIC); format: cell-based; design: unit not given here
[2] = tested on: S. aureus ATCC 29213; settings: ATCC 29213
[3] = tested on: A. baumannii (ATCC BAA-1605); assay: Broad-spectrum activity against Gram-Negative bacteria (MIC); format: cell-based; settings: Table 16, Gram-negative panel
[4] = tested on: Enterococcus faecalis ATCC 29212; settings: E. faecalis ATCC 29212
[5] = tested on: P. aeruginosa (ATCC BAA-1744); assay: Broad-spectrum activity against Gram-Negative bacteria (MIC); format: cell-based; settings: Table 16, Gram-negative panel
[6] = tested on: Methicillin-resistant Staphylococcus aureus MRSA (ATCC BAA-1556); settings: ATCC BAA-1556
[7] = tested on: human red blood cells; design: unit not given beside the values
[8] = tested on: Enterococcus faecium ATCC 700221; settings: E. faecium ATCC 700221
[9] = tested on: Streptococcus pneumoniae ATCC 49619; settings: S. pneumoniae ATCC 49619
[10] = tested on: Klebsiella pneumoniae ATCC 13883; settings: Table 16, Gram-negative panel
[11] = tested on: B. cereus (ATCC-13061); assay: Broad-spectrum activity against Gram-Positive bacteria (MIC); format: cell-based; design: unit not given here
[12] = tested on: Klebsiella pneumoniae (ATCC BAA-1705); settings: Table 16, Gram-negative panel
[13] = tested on: P. aeruginosa (ATCC 10145); assay: Broad-spectrum activity against Gram-Negative bacteria (MIC); format: cell-based; settings: Table 16, Gram-negative panel
[14] = tested on: Streptococcus pneumoniae ATCC 51938; settings: S. pneumoniae ATCC 51938
[15] = tested on: Enterococcus faecium ATCC 27270; settings: E. faecium ATCC 27270
[16] = tested on: E. coli (ATCC BAA-2452); assay: Broad-spectrum activity against Gram-Negative bacteria (MIC); format: cell-based; settings: Table 16, Gram-negative panel
[17] = tested on: Escherichia coli (ATCC 25922); settings: ATCC 25922
[18] = tested on: Pseudomonas aeruginosa (ATCC 27883)
[19] = in vitro; settings: human, fresh human red blood cells (washed), pH 7.4

SMILES	MIC S. aureus ATCC 29213 [2]	MIC MRSA ATCC BAA-1556 [6]	MIC E. coli ATCC 25922 [17]	MIC P. aeruginosa ATCC 27883 ([18]; ATCC 27883)	HC50 at 0.5 h [19]	other results
N=C(N)NCCC[C@@H]1NC(=O)[C@H](CCCNC(=N)N)NC(=O)[C@H](C(c2ccccc2)c2ccccc2)NC(=O)[C@H](C(c2ccccc2)c2ccccc2)NC(=O)[C@H](CCCNC(=N)N)NC(=O)[C@H](CCCNC(=N)N)NC(=O)[C@H](C(c2ccccc2)c2ccccc2)NC1=O [IFX-017, c[Arg-Arg-Dip-Dip-Arg-Arg-Dip]] (cyclo(R[Dip]RR[Dip][Dip]R))	6.2 µg/mL (≈ 4.79 µM)	12.5 µg/mL (≈ 9.66 µM)	>100 µg/mL	>100 µg/mL		Broad-spectrum activity B. subtilis (ATCC-6633) [1]: 1.5; MIC A. baumannii (ATCC BAA-1605) [3]: 12.5 µg/mL (≈ 9.66 µM); Broad-spectrum activity E. faecalis (ATCC 29212) [4]: 12.5; MIC P. aeruginosa (ATCC BAA-1744) [5]: 25 µg/mL (≈ 19.3 µM); HC50 [7]: 290; Broad-spectrum activity E. faecium (ATCC 700221) [8]: 1.5; Broad-spectrum activity S. pneumoniae (ATCC 49619) [9]: 50; MIC K. pneumonia (ATCC 13883) [10]: 50 µg/mL (≈ 38.6 µM); Broad-spectrum activity B. cereus (ATCC-13061) [11]: 6.2; MIC K. pneumonia (ATCC BAA-1705) [12]: 25 µg/mL (≈ 19.3 µM); MIC P. aeruginosa (ATCC 10145) [13]: 25 µg/mL (≈ 19.3 µM); Broad-spectrum activity S. pneumoniae (ATCC 51938) [14]: 12.5; Broad-spectrum activity E. faecium (ATCC 27270) [15]: 3.1; MIC E. coli (ATCC BAA-2452) [16]: 12.5 µg/mL (≈ 9.66 µM)
N=C(N)NCCC[C@@H](N)C(=O)N[C@H](CCCNC(=N)N)C(=O)N[C@H](CCCNC(=N)N)C(=O)N[C@H](CCCNC(=N)N)C(=O)N[C@@H](Cc1c[nH]c2ccccc12)C(=O)N[C@@H](Cc1ccc2ccccc2c1)C(=O)N[C@@H](Cc1ccc2ccccc2c1)C(=O)O [IFX-113-1] (H-[dR][dR][dR][dR]W[2Nal][2Nal]-OH)	6.2 µg/mL (≈ 5.07 µM)	6.2 µg/mL (≈ 5.07 µM)	12.5 µg/mL (≈ 10.2 µM)	12.5 µg/mL (≈ 10.2 µM)	300 µg/mL	
N=C(N)NCCC[C@H](NC(=O)[C@@H](CCCNC(=N)N)NC(=O)[C@@H](N)CCCNC(=N)N)C(=O)N[C@H](CCCNC(=N)N)C(=O)N[C@@H](Cc1c[nH]c2ccccc12)C(=O)N[C@H](Cc1ccc2ccccc2c1)C(=O)N[C@H](Cc1ccc2ccccc2c1)C(=O)O [IFX-111-1] (H-R[dR]R[dR]W[d2Nal][d2Nal]-OH)	3.1 µg/mL (≈ 2.53 µM)	3.1 µg/mL (≈ 2.53 µM)	25 µg/mL (≈ 20.4 µM)	25 µg/mL (≈ 20.4 µM)	310 µg/mL	
N=C(N)NCCC[C@H](NC(=O)[C@H](CCCNC(=N)N)NC(=O)[C@H](CCCNC(=N)N)NC(=O)[C@@H](N)CCCNC(=N)N)C(=O)N[C@@H](Cc1c[nH]c2ccccc12)C(=O)N[C@H](Cc1ccc2ccccc2c1)C(=O)N[C@H](Cc1ccc2ccccc2c1)C(=O)O [IFX-112-1] (H-RRRRW[d2Nal][d2Nal]-OH)	6.2 µg/mL (≈ 5.07 µM)	3.1 µg/mL (≈ 2.53 µM)	12.5 µg/mL (≈ 10.2 µM)	25 µg/mL (≈ 20.4 µM)	370 µg/mL	
NCCCC[C@@H]1NC(=O)[C@H](CCCCN)NC(=O)[C@H](CCCCN)NC(=O)[C@H](Cc2ccc3ccccc3c2)NC(=O)[C@H](Cc2ccc3ccccc3c2)NC(=O)[C@H](Cc2c[nH]c3ccccc23)NC(=O)[C@H](CCCCN)NC1=O [IFX-126, c[Lys-Lys-Lys-Lys-Trp-NaI-NaI]] (cyclo([2Nal][2Nal]KKKKW))	12.5 µg/mL (≈ 11.4 µM)	12.5 µg/mL (≈ 11.4 µM)	64 µg/mL (≈ 58.5 µM)	128 µg/mL (≈ 117 µM)	610 µg/mL	
N=C(N)NCCC[C@@H]1NC(=O)[C@H](CCCNC(=N)N)NC(=O)[C@@H](Cc2ccc3ccccc3c2)NC(=O)[C@@H](Cc2ccc3ccccc3c2)NC(=O)[C@H](Cc2c[nH]c3ccccc23)NC(=O)[C@@H](CCCNC(=N)N)NC(=O)[C@@H](CCCNC(=N)N)NC(=O)[C@H](CCCNC(=N)N)NC1=O [IFX-125, c[Arg-Arg-Arg-arg-arg-Trp-naI-naI]] (cyclo(RRR[dR][dR]W[d2Nal][d2Nal]))	3.1 µg/mL (≈ 2.28 µM)	3.1 µg/mL (≈ 2.28 µM)	16 µg/mL (≈ 11.8 µM)	32 µg/mL (≈ 23.5 µM)	485 µg/mL	
NCCCC[C@H]1NC(=O)[C@@H](CCCCN)NC(=O)[C@@H](CCCCN)NC(=O)[C@@H](Cc2ccc3ccccc3c2)NC(=O)[C@@H](Cc2ccc3ccccc3c2)NC(=O)[C@@H](Cc2c[nH]c3ccccc23)NC(=O)[C@@H](CCCCN)NC1=O [IFX-130, c[lys-lys-lys-lys-trp-naI-naI]] (cyclo([d2Nal][d2Nal][dK][dK][dK][dK][dW]))	6.2 µg/mL (≈ 5.67 µM)	12.5 µg/mL (≈ 11.4 µM)	128 µg/mL (≈ 117 µM)	128 µg/mL (≈ 117 µM)	880 µg/mL	
N=C(N)NCCC[C@H]1NC(=O)[C@@H](CCCNC(=N)N)NC(=O)[C@@H](CCCNC(=N)N)NC(=O)[C@@H](Cc2ccc3ccccc3c2)NC(=O)[C@@H](Cc2ccc3ccccc3c2)NC(=O)[C@@H](Cc2c[nH]c3ccccc23)NC(=O)[C@@H](CCCNC(=N)N)NC(=O)[C@@H](CCCNC(=N)N)NC1=O [IFX-124, c[arg-arg-arg-arg-arg-trp-naI-naI]] (cyclo([d2Nal][d2Nal][dR][dR][dR][dR][dR][dW]))	3.1 µg/mL (≈ 2.28 µM)	3.1 µg/mL (≈ 2.28 µM)	16 µg/mL (≈ 11.8 µM)	16 µg/mL (≈ 11.8 µM)	410 µg/mL	
N=C(N)NCCC[C@@H]1NC(=O)[C@H](CCCNC(=N)N)NC(=O)[C@H](Cc2ccc3ccccc3c2)NC(=O)[C@H](Cc2ccc3ccccc3c2)NC(=O)[C@@H](Cc2c[nH]c3ccccc23)NC(=O)[C@H](CCCNC(=N)N)NC(=O)[C@H](CCCNC(=N)N)NC1=O [IFX-104, c[Arg-Arg-Arg-Arg-trp-NaI-NaI]] (cyclo([2Nal][2Nal]RRRR[dW]))	3.1 µg/mL (≈ 2.57 µM)	3.1 µg/mL (≈ 2.57 µM)	12.5 µg/mL (≈ 10.4 µM)		155 µg/mL	MIC P. aeruginosa ATCC 27883 ([18]; P. aeruginosa ATCC 27883): 12.5 µg/mL (≈ 10.4 µM)
N=C(N)NCCC[C@H]1NC(=O)[C@H](Cc2ccc3ccccc3c2)NC(=O)[C@H](Cc2ccc3ccccc3c2)NC(=O)[C@@H](Cc2c[nH]c3ccccc23)NC(=O)[C@@H](CCCNC(=N)N)NC(=O)[C@@H](CCCNC(=N)N)NC(=O)[C@@H](CCCNC(=N)N)NC1=O [IFX-122, c[arg-arg-arg-arg-trp-NaI-NaI]] (cyclo([2Nal][2Nal][dR][dR][dR][dR][dW]))	3.1 µg/mL (≈ 2.57 µM)	3.1 µg/mL (≈ 2.57 µM)	32 µg/mL (≈ 26.5 µM)	32 µg/mL (≈ 26.5 µM)	220 µg/mL	
N=C(N)NCCC[C@@H]1NC(=O)[C@H](CCCNC(=N)N)NC(=O)[C@H](CCCNC(=N)N)NC(=O)[C@@H](Cc2ccc3ccccc3c2)NC(=O)[C@@H](Cc2ccc3ccccc3c2)NC(=O)[C@H](Cc2c[nH]c3ccccc23)NC(=O)[C@H](CCCNC(=N)N)NC1=O [IFX-112, c[Arg-Arg-Arg-Arg-Trp-naI-naI]] (cyclo(RRRRW[d2Nal][d2Nal]))	3.1 µg/mL (≈ 2.57 µM)	1.5 µg/mL (≈ 1.24 µM)	12.5 µg/mL (≈ 10.4 µM)		295 µg/mL	MIC P. aeruginosa ATCC 27883 ([18]; P. aeruginosa ATCC 27883): 12.5 µg/mL (≈ 10.4 µM)
N=C(N)NCCC[C@@H](N)C(=O)N[C@H](CCCNC(=N)N)C(=O)N[C@H](CCCNC(=N)N)C(=O)N[C@H](CCCNC(=N)N)C(=O)N[C@H](C(=O)N[C@H](C(=O)N[C@H](C(=O)O)C(c1ccccc1)c1ccccc1)C(c1ccccc1)c1ccccc1)C(c1ccccc1)c1ccccc1 [IFX-073-1] (H-[dR][dR][dR][dR][Dip][Dip][Dip]-OH)	3.1 µg/mL (≈ 2.36 µM)	6.2 µg/mL (≈ 4.72 µM)	6.2 µg/mL (≈ 4.72 µM)	12.5 µg/mL (≈ 9.52 µM)	410 µg/mL	
N=C(N)NCCC[C@@H]1NC(=O)[C@H](CCCNC(=N)N)NC(=O)[C@H](CCCNC(=N)N)NC(=O)[C@@H](Cc2ccc3ccccc3c2)NC(=O)[C@@H](Cc2ccc3ccccc3c2)NC(=O)[C@@H](Cc2c[nH]c3ccccc23)NC(=O)[C@H](CCCNC(=N)N)NC1=O [IFX-114, c[Arg-Arg-Arg-Arg-trp-naI-naI]] (cyclo(RRRR[dW][d2Nal][d2Nal]))	3.1 µg/mL (≈ 2.57 µM)	3.1 µg/mL (≈ 2.57 µM)	12.5 µg/mL (≈ 10.4 µM)	25 µg/mL (≈ 20.7 µM)	380 µg/mL	
